Measured values as given in patent US20240374769A1, “LIGHT ACTIVATED CLEANING COMPOSITION” (The Procter & Gamble Company, priority 2023, published 2024).

Legend:
[1] = Thioxanthone depletion in solution under 365 nm irradiation (UV-Vis); format: physicochemical
Description: Solutions of photosensitizer (9-10 μM, 1 eq), […] (9-50 μM, 1-5 eq) and singlet oxygen quenching molecules (1-1000 equivalents) were prepared in a 10 mL volumetric flask either. Solvents for these studies were either 95:5 DI H2O:Ethanol or pure ethanol. A starting UV-Vis spectrum was obtained as a baseline. Solutions were irradiated in a quartz cuvette using appropriate LED's at a measured distance to ensure reproducible results. Spectra were collected at intervals of 1 min, 5 min, 15 minutes, 30 minutes, and every 15 minutes until the […] was depleted. In cases where nitrosoaniline absorption signals were quenched faster, the spectra were collected as smaller intervals typically been 1-5 minutes.
Stock solutions of thioxanthone were created by adding […] of granulated thioxanthone into a 10 mL volumetric flask with pure ethanol to give a concentration of 2.3 mM. Adding 0.1 mL of the stock solution to another 10 mL was used to create a 23 μM solution. Adding 0.1 mL to a 25 mL volumetric flask gives a concentration of −9 μM.
Stock solutions of imidazole were created by adding […] of granulated imidazole into a 10 mL volumetric flask with a 95% H2O: 5% ethanol or pure ethanol to give a concentration of […]. […]
Some thioxanthone decomposition experiments were performed by using a home-built 365 nm LED. […] The light intensity was measured to be roughly 2000 mW/m^2 from each LED. […]

[2] = Riboflavin 5-phosphate sodium salt degradation under 450 nm LED with or without sodium ascorbate; format: physicochemical
Description: Stock solutions of Riboflavin5-phosphate sodium salt were created by adding 2.2 mg of granulated Riboflavin 5-phosphate sodium salt Riboflavin 5-phosphate sodium salt into a 10 mL volumetric flask with a 95% H2O: 5% ethanol to give a concentration of 0.46 mM. Adding 1 mL of the stock solution to another 10 mL was used to create a 46 μM solution. Adding 0.5 mL to a 25 mL volumetric flask gives a concentration of 9 μM.
Stock solutions of sodium ascorbate were created by adding 9.1 mg of granulated sodium ascorbate into a 10 mL volumetric flask with a 95% H2O: 5% ethanol to give a concentration of 4.6 mM. Adding 0.1 mL of the stock solution to another 10 mL was used to create a 46 μM solution. Adding 0.05 mL to a 25 mL volumetric flask gives a concentration of −9 μM, which could be multiplied to give the number of equivalents needed for each study.
For some riboflavin decomposition experiments a home-built 450 nm LED was used to irradiate samples. The quartz cuvette was placed 11.5 cm away from the light source and the measured intensity was 1750 mW/m^2.
A JASCO V-750 spectrophotometer (from JASCO Easton, Maryland, USA) was used for recording UV-Vis spectra. Quartz cuvettes were used for sample irradiations as they have an optical window that allows for spectra to be collected as low as 200 nm. IgorPro8 software was used for plotting and processing the data.
Fractional RF Absorbance is the absorbance signal at 446 nm measured at an irradiation time divided by the absorbance signal at 446 nm at t=0. The concentration of RF was held constant at 46 μM, denoted by “1” and the concentration of sodium ascorbate (SA) was varied in multiples of 46 μM, denoted by “1”, “5”, “10”, “50” (i.e. 46 μM, 230 μM, 460 μM, and 2.3 mM).
To test the depletion of Riboflavin 5-phosphate sodium salt (RF) in presence of sodium ascorbate, experiments were run in triplicate using a 450 nm LED with a measured power of 1750 mW/m2. […]

[3] = in methanol solutions; cited from earlier work

With c1c[nH]cn1 [imidazole] as the molecule, how does the “effect of added imidazole on rate of thioxanthone degradation” value ([1]; thioxanthone 23 μM, imidazole 23 μM to 230 μM, 365 nm) read?
Its value is “increases the rate of thioxanthone degradation”.

With Cc1cc2nc3c(=O)[nH]c(=O)nc-3n(C[C@H](O)[C@H](O)[C@H](O)COP(=O)([O-])O)c2cc1C.[Na+] [Riboflavin 5-phosphate sodium salt] as the molecule, how does the “loss of absorbance signal at 446 nm” value ([2]; RF 46 μM by itself, 450 nm LED 1750 mW/m2, after 30 minutes of irradiation) read?
Its value is “roughly 50%”.

What about the “loss of absorbance signal at 446 nm” value ([2]; RF 46 μM with 5× sodium ascorbate (230 μM), 450 nm LED, in about 10 minutes) of the same molecule?
The value was “roughly 50%”.

And the “loss of absorbance signal at 446 nm” value ([2]; RF 46 μM with 10× sodium ascorbate (460 μM), 450 nm LED, in about 10 minutes)?
The value was “roughly 50%”.

Which depletion of thioxanthone ([1]; thioxanthone 23 μM in ethanol, 365 nm irradiation) does the source give for O=c1c2ccccc2sc2ccccc12 [thioxanthone, reference compound] here?
Its depletion of thioxanthone is “complete after two hours of irradiation”.

What about the triplet quantum yield [3] of the same molecule?
The triplet quantum yield was 0.56.
